What all share (format): cell-based
Conditions in all cases: positive = increase, negative = decrease of activity

The target of one assay is T1, GluD2-D535E (Rattus norvegicus, UniProt Q63226, D535E).
T1 construct: expressed in transfected cells; host or cells: Xenopus laevis oocytes injected with cRNA
T1 sequence (Q63226 24-1007 D535E): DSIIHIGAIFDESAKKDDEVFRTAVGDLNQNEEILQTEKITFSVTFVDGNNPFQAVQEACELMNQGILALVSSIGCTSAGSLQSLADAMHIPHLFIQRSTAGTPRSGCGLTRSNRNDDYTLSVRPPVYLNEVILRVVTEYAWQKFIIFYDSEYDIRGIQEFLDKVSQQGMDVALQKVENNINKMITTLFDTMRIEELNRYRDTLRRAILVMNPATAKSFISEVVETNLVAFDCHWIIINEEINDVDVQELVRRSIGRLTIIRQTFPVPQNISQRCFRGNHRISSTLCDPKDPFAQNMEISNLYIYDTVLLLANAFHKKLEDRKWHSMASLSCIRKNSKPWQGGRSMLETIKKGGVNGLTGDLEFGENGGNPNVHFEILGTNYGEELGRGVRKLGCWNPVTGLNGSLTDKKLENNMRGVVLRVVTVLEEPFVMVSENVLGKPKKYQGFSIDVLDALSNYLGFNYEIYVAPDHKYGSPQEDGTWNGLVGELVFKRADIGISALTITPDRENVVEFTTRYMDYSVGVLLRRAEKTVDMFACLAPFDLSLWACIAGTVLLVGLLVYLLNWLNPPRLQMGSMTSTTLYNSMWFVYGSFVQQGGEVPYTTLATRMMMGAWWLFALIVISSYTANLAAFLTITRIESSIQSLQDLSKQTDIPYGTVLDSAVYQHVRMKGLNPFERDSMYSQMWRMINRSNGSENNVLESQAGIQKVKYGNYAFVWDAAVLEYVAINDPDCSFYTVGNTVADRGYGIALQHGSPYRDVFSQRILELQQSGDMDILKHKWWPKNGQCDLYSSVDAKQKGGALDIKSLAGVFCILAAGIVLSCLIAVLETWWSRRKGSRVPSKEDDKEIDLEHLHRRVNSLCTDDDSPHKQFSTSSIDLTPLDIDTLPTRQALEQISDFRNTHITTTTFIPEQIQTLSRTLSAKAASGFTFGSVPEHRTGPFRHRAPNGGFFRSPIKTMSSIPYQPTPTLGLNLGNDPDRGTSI
The assay is described as follows: TEVC of constitutive current, Xenopus oocytes expressing GluD2-D535E.

The target of another assay is T2, GluD1-S647F (Homo sapiens, UniProt Q9ULK0, S647F).
T2 construct: expressed in transfected cells; host or cells: Xenopus laevis oocytes injected with cRNA
T2 sequence (Q9ULK0 21-1009 S647F): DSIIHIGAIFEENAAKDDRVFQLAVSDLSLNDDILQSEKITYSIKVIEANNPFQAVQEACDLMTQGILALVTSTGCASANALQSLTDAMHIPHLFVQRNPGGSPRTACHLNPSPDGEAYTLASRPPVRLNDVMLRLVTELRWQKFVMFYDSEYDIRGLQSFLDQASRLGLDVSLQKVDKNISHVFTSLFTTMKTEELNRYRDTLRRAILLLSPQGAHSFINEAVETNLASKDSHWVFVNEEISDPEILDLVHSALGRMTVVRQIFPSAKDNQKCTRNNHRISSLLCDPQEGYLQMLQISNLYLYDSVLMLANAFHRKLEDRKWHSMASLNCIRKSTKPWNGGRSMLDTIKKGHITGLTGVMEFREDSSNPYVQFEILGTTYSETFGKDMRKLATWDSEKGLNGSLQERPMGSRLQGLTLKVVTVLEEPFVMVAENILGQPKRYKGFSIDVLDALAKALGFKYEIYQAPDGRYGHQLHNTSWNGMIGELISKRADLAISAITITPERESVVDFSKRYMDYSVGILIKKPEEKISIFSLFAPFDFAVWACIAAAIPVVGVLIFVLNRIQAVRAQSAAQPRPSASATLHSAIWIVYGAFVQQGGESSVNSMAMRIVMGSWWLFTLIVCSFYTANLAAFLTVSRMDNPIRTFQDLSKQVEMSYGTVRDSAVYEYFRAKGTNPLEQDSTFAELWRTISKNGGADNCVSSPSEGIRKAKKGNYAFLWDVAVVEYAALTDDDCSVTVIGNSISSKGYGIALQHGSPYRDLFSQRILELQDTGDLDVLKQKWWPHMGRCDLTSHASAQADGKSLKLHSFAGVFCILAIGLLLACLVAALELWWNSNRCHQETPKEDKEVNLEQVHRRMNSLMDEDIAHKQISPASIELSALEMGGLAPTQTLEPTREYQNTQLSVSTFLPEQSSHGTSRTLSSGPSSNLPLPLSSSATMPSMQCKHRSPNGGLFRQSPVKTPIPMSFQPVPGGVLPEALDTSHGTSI
The assay is described as follows: TEVC of constitutive current, Xenopus oocytes expressing GluD1-S647F.

A further assay concerns the target T3, GluD2-S646P (Rattus norvegicus, UniProt Q63226, S646P).
T3 construct: expressed in transfected cells; host or cells: Xenopus laevis oocytes injected with cRNA
T3 sequence (Q63226 24-1007 S646P): T1 sequence (Q63226 24-1007 D535E) with E512D, S623P
The assay is described as follows: TEVC of constitutive current, Xenopus oocytes expressing GluD2-S646P.

The source of these data is PMC10840383, “Clinical features, functional consequences, and rescue pharmacology of missense GRID1 and GRID2 human variants” (Human Molecular Genetics, 2023).

Structures are written as SMILES. Numbering of substitutions follows the chain as printed.

On to `N[C@H](CO)C(=O)O` [D-serine], for which the “D-Serine effect (Baseline −10 mM D-Serine)” value on GluD2-D535E (10 mM D-serine) is given as −5.8 ± 2.4 (12) nA; at GluD1-S647F (10 mM D-serine) it was 14 ± 3.8 (10) nA; at GluD2-S646P (10 mM D-serine), 5.2 ± 6.0 (11) nA.
For the compound `N=C(N)c1ccc(OCCCCCOc2ccc(C(=N)N)cc2)cc1` [Pentamidine, pentamidine], the results for the “Pentamidine effect (Baseline −100 μM Pentamidine)” value at GluD2-D535E (100 μM pentamidine), on GluD1-S647F (100 μM pentamidine) and on GluD2-S646P (100 μM pentamidine) were −0.67 ± 1.1 (12) nA, −47 ± 11 (10) nA and 6.5 ± 5.4 (11) nA, respectively.
